Measurements reported in PubChem BioAssay AID504473 (NMMLSC, 2011).
Calls of active or inactive are those of the source.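 How the source made its calls: active means GFP ratio to DMSO above 1.5 or below 0.66; inactive means the rest.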

Legend:
Assay in all cases: expression changes of rapamycin-responsive GFP fusion proteins, S. cerevisiae, GFP-tagged clone panel, flow cytometry (AID 504473);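 further: median GFP fluorescence of the cells measured by high-throughput flow cytometry; test concentration not given here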
YNL142W = details: S. cerevisiae GFP-tagged strains, 3 h
YKR039W = details: S. cerevisiae GFP-tagged strains, 3 h
YIL043C = details: S. cerevisiae GFP-tagged strains, 3 h
YLR367W = details: S. cerevisiae GFP-tagged strains, 3 h
YGL036W = details: S. cerevisiae GFP-tagged strains, 3 h
YNL015W = details: S. cerevisiae GFP-tagged strains, 3 h
YPL265W = details: S. cerevisiae GFP-tagged strains, 3 h
YDR070C = details: S. cerevisiae GFP-tagged strains, 3 h
YEL007W = details: S. cerevisiae GFP-tagged strains, 3 h
YBL087C = details: S. cerevisiae GFP-tagged strains, 3 h
YCR002C = details: S. cerevisiae GFP-tagged strains, 3 h
YBR248C = details: S. cerevisiae GFP-tagged strains, 3 h
YAL061W = details: S. cerevisiae GFP-tagged strains, 3 h
YKL119C = details: S. cerevisiae GFP-tagged strains, 3 h
YLR287C-A = details: S. cerevisiae GFP-tagged strains, 3 h
YEL060C = details: S. cerevisiae GFP-tagged strains, 3 h
YKL103C = details: S. cerevisiae GFP-tagged strains, 3 h
YFR031C-A = details: S. cerevisiae GFP-tagged strains, 3 h
YLR109W = details: S. cerevisiae GFP-tagged strains, 3 h
YAL060W = details: S. cerevisiae GFP-tagged strains, 3 h
YBR072W = details: S. cerevisiae GFP-tagged strains, 3 h
YPL220W = details: S. cerevisiae GFP-tagged strains, 3 h
YEL071W = details: S. cerevisiae GFP-tagged strains, 3 h
YML004C = details: S. cerevisiae GFP-tagged strains, 3 h
YOR063W = details: S. cerevisiae GFP-tagged strains, 3 h
YHR018C = details: S. cerevisiae GFP-tagged strains, 3 h
YCL064C = details: S. cerevisiae GFP-tagged strains, 3 h
YER081W = details: S. cerevisiae GFP-tagged strains, 3 h
YMR120C = details: S. cerevisiae GFP-tagged strains, 3 h
YOR136W = details: S. cerevisiae GFP-tagged strains, 3 h
YKR094C = details: S. cerevisiae GFP-tagged strains, 3 h
YKL086W = details: S. cerevisiae GFP-tagged strains, 3 h
YJR148W = details: S. cerevisiae GFP-tagged strains, 3 h
YJL144W = details: S. cerevisiae GFP-tagged strains, 3 h
YLR185W = details: S. cerevisiae GFP-tagged strains, 3 h
YLR058C = details: S. cerevisiae GFP-tagged strains, 3 h
YML128C = details: S. cerevisiae GFP-tagged strains, 3 h
YDL204W = details: S. cerevisiae GFP-tagged strains, 3 h
YHR087W = details: S. cerevisiae GFP-tagged strains, 3 h
YDR399W = details: S. cerevisiae GFP-tagged strains, 3 h
YEL063C = details: S. cerevisiae GFP-tagged strains, 3 h
YLR142W = details: S. cerevisiae GFP-tagged strains, 3 h
YHL021C = details: S. cerevisiae GFP-tagged strains, 3 h
YER117W = details: S. cerevisiae GFP-tagged strains, 3 h
YGR088W = details: S. cerevisiae GFP-tagged strains, 3 h
YBR208C = details: S. cerevisiae GFP-tagged strains, 3 h
YPR145W = details: S. cerevisiae GFP-tagged strains, 3 h
YML063W = details: S. cerevisiae GFP-tagged strains, 3 h
YGR019W = details: S. cerevisiae GFP-tagged strains, 3 h
YLR237W = details: S. cerevisiae GFP-tagged strains, 3 h
YPL111W = details: S. cerevisiae GFP-tagged strains, 3 h
YMR307W = details: S. cerevisiae GFP-tagged strains, 3 h
YNL068C = details: S. cerevisiae GFP-tagged strains, 3 h
YOR038C = details: S. cerevisiae GFP-tagged strains, 3 h
YGL135W = details: S. cerevisiae GFP-tagged strains, 3 h
YER156C = details: S. cerevisiae GFP-tagged strains, 3 h
YDR453C = details: S. cerevisiae GFP-tagged strains, 3 h
YIL051C = details: S. cerevisiae GFP-tagged strains, 3 h
YML034W = details: S. cerevisiae GFP-tagged strains, 3 h
YGL062W = details: S. cerevisiae GFP-tagged strains, 3 h
YPL150W = details: S. cerevisiae GFP-tagged strains, 3 h
YPL131W = details: S. cerevisiae GFP-tagged strains, 3 h
YLL026W = details: S. cerevisiae GFP-tagged strains, 3 h
YIL052C = details: S. cerevisiae GFP-tagged strains, 3 h
YGR034W = details: S. cerevisiae GFP-tagged strains, 3 h
YIL066C = details: S. cerevisiae GFP-tagged strains, 3 h
YBR139W = details: S. cerevisiae GFP-tagged strains, 3 h
YML026C = details: S. cerevisiae GFP-tagged strains, 3 h
YHR141C = details: S. cerevisiae GFP-tagged strains, 3 h
YHR203C = details: S. cerevisiae GFP-tagged strains, 3 h
YPR184W = details: S. cerevisiae GFP-tagged strains, 3 h
YOR371C = details: S. cerevisiae GFP-tagged strains, 3 h
YGR121C = details: S. cerevisiae GFP-tagged strains, 3 h
YDL130W = details: S. cerevisiae GFP-tagged strains, 3 h
YFR053C = details: S. cerevisiae GFP-tagged strains, 3 h
YDL205C = details: S. cerevisiae GFP-tagged strains, 3 h
YGL147C = details: S. cerevisiae GFP-tagged strains, 3 h
YHR144C = details: S. cerevisiae GFP-tagged strains, 3 h
YLL039C = details: S. cerevisiae GFP-tagged strains, 3 h
YER151C = details: S. cerevisiae GFP-tagged strains, 3 h
YNL214W = details: S. cerevisiae GFP-tagged strains, 3 h
YPR132W = details: S. cerevisiae GFP-tagged strains, 3 h
YCR005C = details: S. cerevisiae GFP-tagged strains, 3 h
YJL056C = details: S. cerevisiae GFP-tagged strains, 3 h
YOR375C = details: S. cerevisiae GFP-tagged strains, 3 h
YNR001C = details: S. cerevisiae GFP-tagged strains, 3 h
YMR251W-A = details: S. cerevisiae GFP-tagged strains, 3 h
YOL052C-A = details: S. cerevisiae GFP-tagged strains, 3 h
YKR093W = details: S. cerevisiae GFP-tagged strains, 3 h
YOR182C = details: S. cerevisiae GFP-tagged strains, 3 h
[1] = molecular target: General amino acid permease AGP1 (Saccharomyces cerevisiae S288c) (UniProt P25376); details: S. cerevisiae GFP-tagged strains, 3 h, YCL025C
Chain of General amino acid permease AGP1 (Saccharomyces cerevisiae S288c) (P25376 whole entry, looked up): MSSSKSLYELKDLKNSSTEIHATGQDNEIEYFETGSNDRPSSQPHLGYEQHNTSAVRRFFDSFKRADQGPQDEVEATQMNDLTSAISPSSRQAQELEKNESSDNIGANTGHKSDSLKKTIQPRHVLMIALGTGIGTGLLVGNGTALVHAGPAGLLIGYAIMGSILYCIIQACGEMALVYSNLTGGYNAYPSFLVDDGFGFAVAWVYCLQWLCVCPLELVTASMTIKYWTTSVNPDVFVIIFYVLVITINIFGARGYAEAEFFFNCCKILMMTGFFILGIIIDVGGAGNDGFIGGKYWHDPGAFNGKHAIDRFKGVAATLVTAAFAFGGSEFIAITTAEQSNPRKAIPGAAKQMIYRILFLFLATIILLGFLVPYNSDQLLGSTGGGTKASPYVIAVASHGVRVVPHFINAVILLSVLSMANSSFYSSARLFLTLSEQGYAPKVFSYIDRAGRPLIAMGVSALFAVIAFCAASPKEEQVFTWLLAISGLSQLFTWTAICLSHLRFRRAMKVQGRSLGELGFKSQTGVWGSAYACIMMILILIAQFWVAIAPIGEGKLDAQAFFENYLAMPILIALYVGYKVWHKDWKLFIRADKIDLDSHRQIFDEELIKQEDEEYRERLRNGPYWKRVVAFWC

YNL112W = details: S. cerevisiae GFP-tagged strains, 3 h
YDR382W = details: S. cerevisiae GFP-tagged strains, 3 h
YMR105C = details: S. cerevisiae GFP-tagged strains, 3 h
YOR173W = details: S. cerevisiae GFP-tagged strains, 3 h
YIL069C = details: S. cerevisiae GFP-tagged strains, 3 h

CNc1nc(N)c([N+](=O)[O-])c(Nc2cccc(Cl)c2)n1
GFP ratio to DMSO (YNL142W): 1.32 (inactive) | GFP ratio to DMSO (YKR039W): 1.35 (inactive) | GFP ratio to DMSO (YIL043C): 1 (inactive) | GFP ratio to DMSO (YLR367W): 1.01 (inactive) | GFP ratio to DMSO (YGL036W): 0.781 (inactive) | GFP ratio to DMSO (YNL015W): 0.947 (inactive) | GFP ratio to DMSO (YPL265W): 1.62 | GFP ratio to DMSO (YDR070C): 1.14 (inactive) | GFP ratio to DMSO (YEL007W): 0.89 (inactive) | GFP ratio to DMSO (YBL087C): 0.955 (inactive) | GFP ratio to DMSO (YCR002C): 0.916 (inactive) | GFP ratio to DMSO (YBR248C): 1.01 (inactive) | GFP ratio to DMSO (YAL061W): 0.887 (inactive) | GFP ratio to DMSO (YKL119C): 0.951 (inactive) | GFP ratio to DMSO (YLR287C-A): 1.04 (inactive) | GFP ratio to DMSO (YEL060C): 0.826 (inactive) | GFP ratio to DMSO (YKL103C): 1.21 (inactive) | GFP ratio to DMSO (YFR031C-A): 1.02 (inactive) | GFP ratio to DMSO (YLR109W): 1.3 (inactive) | GFP ratio to DMSO (YAL060W): 0.91 (inactive) | GFP ratio to DMSO (YBR072W): 0.849 (inactive) | GFP ratio to DMSO (YPL220W): 1.07 (inactive) | GFP ratio to DMSO (YEL071W): 2.01 | GFP ratio to DMSO (YML004C): 0.875 (inactive) | GFP ratio to DMSO (YOR063W): 1.1 (inactive) | GFP ratio to DMSO (YHR018C): 0.948 (inactive) | GFP ratio to DMSO (YCL064C): 0.902 (inactive) | GFP ratio to DMSO (YER081W): 1.21 (inactive) | GFP ratio to DMSO (YMR120C): 0.553 | GFP ratio to DMSO (YOR136W): 1.19 (inactive) | GFP ratio to DMSO (YKR094C): 1.06 (inactive) | GFP ratio to DMSO (YKL086W): 0.896 (inactive) | GFP ratio to DMSO (YJR148W): 1.71 | GFP ratio to DMSO (YJL144W): 0.983 (inactive) | GFP ratio to DMSO (YLR185W): 1.04 (inactive) | GFP ratio to DMSO (YLR058C): 0.859 (inactive) | GFP ratio to DMSO (YML128C): 0.923 (inactive) | GFP ratio to DMSO (YDL204W): 0.851 (inactive) | GFP ratio to DMSO (YHR087W): 0.926 (inactive) | GFP ratio to DMSO (YDR399W): 0.977 (inactive) | GFP ratio to DMSO (YEL063C): 1.09 (inactive) | GFP ratio to DMSO (YLR142W): 0.835 (inactive) | GFP ratio to DMSO (YHL021C): 1.11 (inactive) | GFP ratio to DMSO (YER117W): 0.883 (inactive) | GFP ratio to DMSO (YGR088W): 1.07 (inactive) | GFP ratio to DMSO (YBR208C): 1.16 (inactive) | GFP ratio to DMSO (YPR145W): 1.32 (inactive) | GFP ratio to DMSO (YML063W): 1.04 (inactive) | GFP ratio to DMSO (YGR019W): 1.02 (inactive) | GFP ratio to DMSO (YLR237W): 0.77 (inactive) | GFP ratio to DMSO (YPL111W): 1.25 (inactive) | GFP ratio to DMSO (YMR307W): 0.996 (inactive) | GFP ratio to DMSO (YNL068C): 0.946 (inactive) | GFP ratio to DMSO (YOR038C): 0.974 (inactive) | GFP ratio to DMSO (YGL135W): 1.07 (inactive) | GFP ratio to DMSO (YER156C): 1.01 (inactive) | GFP ratio to DMSO (YDR453C): 1.02 (inactive) | GFP ratio to DMSO (YIL051C): 0.981 (inactive) | GFP ratio to DMSO (YML034W): 0.842 (inactive) | GFP ratio to DMSO (YGL062W): 1.65 | GFP ratio to DMSO (YPL150W): 0.863 (inactive) | GFP ratio to DMSO (YPL131W): 1.09 (inactive) | GFP ratio to DMSO (YLL026W): 1.07 (inactive) | GFP ratio to DMSO (YIL052C): 0.864 (inactive) | GFP ratio to DMSO (YGR034W): 1.01 (inactive) | GFP ratio to DMSO (YIL066C): 0.868 (inactive) | GFP ratio to DMSO (YBR139W): 0.935 (inactive) | GFP ratio to DMSO (YML026C): 0.93 (inactive) | GFP ratio to DMSO (YHR141C): 1.04 (inactive) | GFP ratio to DMSO (YHR203C): 1.04 (inactive) | GFP ratio to DMSO (YPR184W): 0.958 (inactive) | GFP ratio to DMSO (YOR371C): 0.826 (inactive) | GFP ratio to DMSO (YGR121C): 1.02 (inactive) | GFP ratio to DMSO (YDL130W): 1.06 (inactive) | GFP ratio to DMSO (YFR053C): 0.888 (inactive) | GFP ratio to DMSO (YDL205C): 0.943 (inactive) | GFP ratio to DMSO (YGL147C): 0.988 (inactive) | GFP ratio to DMSO (YHR144C): 0.837 (inactive) | GFP ratio to DMSO (YLL039C): 0.725 (inactive) | GFP ratio to DMSO (YER151C): 0.926 (inactive) | GFP ratio to DMSO (YNL214W): 0.938 (inactive) | GFP ratio to DMSO (YPR132W): 1.13 (inactive) | GFP ratio to DMSO (YCR005C): 2.27 | GFP ratio to DMSO (YJL056C): 0.808 (inactive) | GFP ratio to DMSO (YOR375C): 1.17 (inactive) | GFP ratio to DMSO (YNR001C): 1.17 (inactive) | GFP ratio to DMSO (YMR251W-A): 1.01 (inactive) | GFP ratio to DMSO (YOL052C-A): 1.17 (inactive) | GFP ratio to DMSO (YKR093W): 1.61 | GFP ratio to DMSO (YOR182C): 1.02 (inactive) | GFP ratio to DMSO [1]: 0.961 (inactive) | GFP ratio to DMSO (YNL112W): 1.07 (inactive) | GFP ratio to DMSO (YDR382W): 1.1 (inactive) | GFP ratio to DMSO (YMR105C): 1.17 (inactive) | GFP ratio to DMSO (YOR173W): 0.891 (inactive) | GFP ratio to DMSO (YIL069C): 1.1 (inactive)
